# Data published in US20080255206A1, “Rxr Agonists and Antagonists, Alone or in Combination with Ppar Ligands, in the Treatment of Metabolic and Cardiovascular Diseases” (priority 2005, published 2008).
# Experiments:
# NMRI mice = experiment: 2 weeks toxicology study in NMRI mice; format: in vivo
# Procedure: Oral administration of the RXR agonist compound 1 is tested by daily oral gavage in a 2 weeks toxicology study in NMRI mice. […] This signifies a favourable effect on the lipid profile, which is important in therapy of diabetes and lipid disorders.
# [1] = tested on: myeloperoxidase (MPO) activity; experiment: Semi chronic inflammation of mouse ears, MPO activity; format: in vivo, C57BL/6 mice; settings: 11 d
# Procedure: […] mice of the C57BL/6 strain are used. Inflammation is induced on mouse ears with either AtRA, 9-cis RA or TPA by topical application. Inflammation is measured objectively by determination of the activity of myeloperoxidase (MPO) being directly correlated to the infiltration of polymorphonuclear white blood cells and by the determination of mRNA expression of c-jun, a protein implicated in the AP-1 transduction pathway according to known methods, see e.g. P. L. Stanley et al., Skin Pharmacol. 4, 262-271 (1991) (MPO assay), N. Basset-Sequin et al., J. Invest. Dermatol. 94, 418-422 (1990), F. J. Rauscher et al., Cell 52, 471-480 […], P. Sassone-Corn et al., Nature 326, 507-510 (1987), and M. Pfahl, Endocr. Rev. 14, 651-658, 1993, which are incorporated by reference regarding the experimental method.
# In the “acute inflammation” test, mice are treated topically (epicutaneously), orally or intraperitoneally, daily for 4 days. In the “semi chronic inflammation” test, mice are treated topically according to the schedules given below. For each experiment, a group of at least 4 mice of both sexes are used in the defined condition, regarding placebo, vehicle control, compound, topical formulation, oral formulation, dosage and concentration. The topical vehicle consists of ethanol/PEG 400/water (3:1:1).
# The anti-inflammatory effect of topical RXR antagonists is tested by determination of myeloperoxidase activity in % of vehicle controls. The effect of the RXR antagonist compound 15 is also compared with the well known anti-inflammatory effect of the two corticosteroids, clobetasol dipropionate and betamethasone propionate. For induction of inflammation, AtRA and TPA are applied topically to the skin and the administration of the test compounds, the RXR antagonist compound 15 and the two corticosteroids are given in the following order, according to the schedule, described in: Skin Pharmacol 1991; 4 (4): 262-271, Stanley P L. et.al.: RA or TPA is administered on days 0, 2, 4, 7 and 9, compound 15 or corticosteroids are administered twice daily on day 7, day 8 and day 9 and once on day 10 in the morning. The mice are sacrificed on day 10 in the afternoon.
compound,measurement,setting,value
"CC1=C(/C=C/C2=C(/C=C/C(C)=C/C(=O)O)CCCCC2)C(C)(C)CCC1 [Compound 1, (2E,4E)-3-methyl-5-[2-[(E)-2-(2,6,6-trimethyl-1-cyclohexen-1-yl)ethenyl]-1-cyclohepten-1-yl]-2,4-pentadienoic acid]","Lipid profile (triglycerides, HDL-, LDL-cholesterol)",NMRI mice; all treated groups,"tendency to a decrease in triglycerides, an increase in HDL-cholesterol and a decrease in LDL-cholesterol"
same,Signs or symptoms of the hypervitaminosis A syndrome,NMRI mice; all treated groups,no signs or symptoms of the hypervitaminosis A syndrome
same,"Tolerability, oral","NMRI mice; daily oral gavage, 2 weeks, up to 400 mg/kg/day",very well tolerated
same,"Tolerability, intraperitoneal","NMRI mice; intraperitoneally, 200 mg/kg/day",well tolerated
same,"Body weight, intraperitoneal","NMRI mice; intraperitoneally, 400 mg/kg/day",retarded body weight increase
"CCCCOc1c(\C(C)=C/C=C/C(C)=C/C(=O)O)cc(C(C)(C)C)cc1C(C)(C)C [Compound 15, (2E,4E,6Z)-7-[2-butoxy-3,5-bis(1,1-dimethylethyl)phenyl]-3-methyl-2,4,6-octatrienoic acid]",MPO activity (% vehicle treated mice),[1]; At RA 0.05% + test compound 0.05% topical,184 ± 72 % vehicle treated mice
same,MPO activity (% vehicle treated mice),[1]; TPA 0.005% + test compound 0.05% topical,345 ± 81 % vehicle treated mice
